Data reported in PMC11811597, “Phenomics‐Based Discovery of Novel Orthosteric Choline Kinase Inhibitors” (Angewandte Chemie (International Ed. in English), 2025).

Biological target: T1, EHMT2 (G9a) (Homo sapiens, UniProt Q96KQ7)
T1 sequence (Q96KQ7 1-1210): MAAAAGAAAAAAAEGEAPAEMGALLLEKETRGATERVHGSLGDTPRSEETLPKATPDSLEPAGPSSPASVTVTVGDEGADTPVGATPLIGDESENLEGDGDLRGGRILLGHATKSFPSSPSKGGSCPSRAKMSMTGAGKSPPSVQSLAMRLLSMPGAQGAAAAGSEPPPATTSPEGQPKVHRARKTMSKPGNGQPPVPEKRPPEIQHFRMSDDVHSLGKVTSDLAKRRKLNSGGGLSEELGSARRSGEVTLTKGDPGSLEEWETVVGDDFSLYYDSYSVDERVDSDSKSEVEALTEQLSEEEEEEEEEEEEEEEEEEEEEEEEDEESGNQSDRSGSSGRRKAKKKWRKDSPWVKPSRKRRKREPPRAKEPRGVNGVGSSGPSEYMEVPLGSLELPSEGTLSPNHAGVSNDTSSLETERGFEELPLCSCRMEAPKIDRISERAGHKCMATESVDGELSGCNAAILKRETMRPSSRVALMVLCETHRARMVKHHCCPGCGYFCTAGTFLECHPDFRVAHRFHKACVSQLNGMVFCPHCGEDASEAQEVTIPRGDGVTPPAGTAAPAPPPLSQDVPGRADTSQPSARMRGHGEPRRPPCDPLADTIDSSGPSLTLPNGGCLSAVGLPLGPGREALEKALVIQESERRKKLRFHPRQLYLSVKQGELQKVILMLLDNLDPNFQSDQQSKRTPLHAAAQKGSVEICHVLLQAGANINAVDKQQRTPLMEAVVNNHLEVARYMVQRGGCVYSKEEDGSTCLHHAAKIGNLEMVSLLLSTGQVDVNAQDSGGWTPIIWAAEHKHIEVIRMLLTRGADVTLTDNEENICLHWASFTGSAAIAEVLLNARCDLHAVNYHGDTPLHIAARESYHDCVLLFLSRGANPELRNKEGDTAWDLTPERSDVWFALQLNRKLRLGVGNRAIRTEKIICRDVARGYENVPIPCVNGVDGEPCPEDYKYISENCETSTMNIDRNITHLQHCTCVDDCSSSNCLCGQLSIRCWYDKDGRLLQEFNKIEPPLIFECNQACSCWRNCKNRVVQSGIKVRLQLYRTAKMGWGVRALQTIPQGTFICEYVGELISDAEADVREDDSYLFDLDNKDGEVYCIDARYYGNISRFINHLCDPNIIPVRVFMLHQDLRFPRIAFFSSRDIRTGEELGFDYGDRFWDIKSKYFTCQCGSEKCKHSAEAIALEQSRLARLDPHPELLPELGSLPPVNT
Assay: Competitive affinity-based chemoproteomics (UNC0965 matrix), PBMC cell extract
Type: binding
Set-up: endogenous in cells
Details: 20 µM competitor
Description: described.[2] Lysates were precleared with bead slurry (100 μL) for 30 min at 4 °C and then treated with UNC0638 or UNC0737 (20 μM) or DMSO control for 30 min at 4 °C followed by incubation with affinity matrix for 2 h at 4 °C. Affinity matrices were washed with buffer A (5 mL) and proteins eluted with 100 μL of 2x Laemmli sample buffer, 100 mM DTT, in PBS and heating for 10 min at 90 °C.
Eluents (70 µL) were diluted in 0.1 M Tris (pH 7.8) to 200 µL, reduced with 5 mM DTT for 30 min at RT, and alkylated with 20 mM iodoacetamide for 30 min at RT in the dark. Proteins were precipitated by sequential addition of MeOH (600 µL), CHCl3 (150 µL) and H2O (450 µL), pelleted (17,000 × g, 5 min), washed with further MeOH (2 × 600 µL), and re-pelleted. Air dried pellets were resuspended in 50 μL 6 M urea (pH 7.8) by vortexing and then diluted with 250 μL H2O before adding 1 µg trypsin for overnight incubation at 37 °C. The digests were acidified with FA (1% v/v final concentration), desalted using SOLA HRP SPE Cartridges (Thermo Fisher), eluted with 69% v/v MeCN, 0.1% v/v FA in H2O (600 μL) and dried in vacuo. Dried peptides were stored at -20 °C before resuspension in 2% v/v MeCN, 0.1% v/v FA in H2O (20 μL) for LC-MS/MS analysis.
LC-MS/MS Data Acquisition
Digested samples were analysed by nano-UPLC–MS/MS using a Dionex Ultimate 3000 nano UPLC fitted with an EASY spray column (75 μm × 500 mm, 2 μm particle size, Thermo Scientific), coupled to an Orbitrap Q Exactive instrument. […]
Raw data was processed using MaxQuant[3] version 2.0.1.0 and the reference complete human proteome FASTA file (UniProt, downloaded 05.08.21). Label Free Quantification (LFQ) and Match Between Runs were selected; Cysteine carbamidomethylation was selected as a fixed modification, and methionine oxidation and asparagine deamidation as variable modifications. Default settings for identification and quantification were used. […]
mode selected for both identification and quantification of proteins (razor peptides are uniquely assigned to protein groups and not to individual proteins).

COc1cc2c(NC3CCN(C(C)C)CC3)nc(C3CCCCC3)nc2cc1OCCCN1CCCC1 [UNC0638]
EHMT2 (G9a) binding to the matrix: reduced binding to the matrix
